Test results taken from publication PMC5011342, “A high throughput drug screening assay to identify compounds that promote oligodendrocyte differentiation using acutely dissociated and purified oligodendrocyte precursor cells” (BMC Research Notes, 2016).
pEC50: −log10 of the molar value. Where two headings read alike, the source gives them in different places.

What was measured:
[1] = test system: acutely dissociated and purified rat OPCs; experiment: Acute OL differentiation assay (MBP expression/cell, immunofluorescent image quantification); format: cell-based; details: for activation at 0.08 µM / activation at 0.4 µM / activation at 2 µM / activation at 10 µM / pEC50: Rattus norvegicus; for activation at 0.08 µM: test compound at 0.08 uM, read-out: 0.08 uM (% Quet); for activation at 0.08 µM / activation at 0.4 µM / activation at 2 µM / activation at 10 µM: sheet "All OLga data", relative to quetiapine; for hit in OL differentiation assay, MRF-TMC: ● = confirmed hit in this paper's assay; for pEC50: average EC50 for induction of OL differentiation from independent biological replicates, eight concentrations
Method in brief: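 Oligodendrocyte precursor cells were enriched from P6-P7 Sprague–Dawley rat brains by immunopanning (RAN-2 and GalC depletion, O4 selection), plated at 5000 cells/well in serum-free, mitogen-free differentiation media on PDL/laminin 96-well view plates, centrifuged at 200×g, and pre-incubated 1–2 h before test compounds were added in quadruplicate. On DIV4, cells were fixed, stained for MBP and DAPI, imaged automatically, and MBP expression per cell was quantified.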

[2] = test system: expanded OPCs; experiment: cells; details: for viability at 0.1 µM / viability at 1 µM / viability at 10 µM: Rattus norvegicus, 72 h; for 0.1 µM (% DMSO) / 1 µM (% DMSO) / 10 µM (% DMSO): alamarBlue viability of expanded OPCs, relative to DMSO control; for 0.1 µM (% DMSO): compound at 0.1 µM; for 1 µM (% DMSO): compound at 1 µM; for 10 µM (% DMSO): compound at 10 µM
Method in brief: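 Expanded OPCs seeded at 10,000 cells/well in differentiation media, then exposed to NCC library compounds at 10, 1 and 0.1 µM (quadruplicate, 0.1% DMSO) for three days. Viability read as alamarBlue fluorescence (560/590 nm) after 4 h at 37 °C; tunicamycin 5 ng/ml served as toxicity control.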

[3] = test system: Rat OPCs; details: ● = hit reported; cited from earlier work
[4] = test system: Rat OPCs, Mouse OPCs; details: ● = hit reported; cited from earlier work
[5] = test compound at 0.4 uM, NCC library screen, read-out: 0.4 uM (% Quet)
[6] = read-out: 0.1 µM (% DMSO), alamarBlue viability, NCC library compound at 0.1 µM, sheet "All Tox data"
[7] = read-out: 1 µM (% DMSO), alamarBlue viability, NCC library compound at 1 µM, sheet "All Tox data"
[8] = read-out: 10 µM (% DMSO), alamarBlue viability, NCC library compound at 10 µM, sheet "All Tox data"
[9] = test compound at 2 uM, NCC library screen, read-out: 2 uM (% Quet)
[10] = test compound at 10 uM, NCC library screen, read-out: 10 uM (% Quet)
[11] = 0.4 uM test compound, read-out: OL differentiation, 0.4 uM (% Quet)
[12] = 2 uM test compound, read-out: OL differentiation, 2 uM (% Quet)
[13] = read-out: 0.1 µM (% DMSO), alamarBlue viability of expanded OPCs, compound at 0.1 µM, sheet All Tox data
[14] = read-out: 1 µM (% DMSO), alamarBlue viability of expanded OPCs, compound at 1 µM, sheet All Tox data
[15] = read-out: 10 µM (% DMSO), alamarBlue viability of expanded OPCs, compound at 10 µM, sheet All Tox data
[16] = 10 uM test compound, read-out: OL differentiation, 10 uM (% Quet)

Row | Compound | hit in OL differentiation assay, MRF-TMC [1] | viability at 0.1 µM [2, 6] [%] | viability at 1 µM [2, 7] [%] | viability at 10 µM [2, 8] [%] | hit in OL differentiation assay, Deshmukh [3] | activation at 2 µM [1, 9] [%] | pEC50 [1] | activation at 2 µM [1, 12] [%] | viability at 0.1 µM [2, 13] [%] | viability at 1 µM [2, 14] [%] | viability at 10 µM [2, 15] [%] | activation at 10 µM [1, 16] [%] | also measured
1 | OCCN1CCN(CCCN2c3ccccc3Sc3ccc(C(F)(F)F)cc32)CC1 [Fluphenazine, reference compound] | ● | 159 | 46.8 | 9.6 | ● |  |  |  |  |  |  |  | activation at 0.08 µM ([1]; NCC library screen): 92.6%; activation at 0.4 µM [1, 5]: -2.7%
2 | CC(C)[N+]1(C)[C@@H]2CC[C@H]1C[C@@H](OC(=O)C(CO)c1ccccc1)C2 (stereo partly shown) [Ipatropium, reference compound] | ● | 92.6 | 101 | 123 | ● | 21.2 | 5.07 |  |  |  |  |  | activation at 10 µM [1, 10]: 38.6%; hit in OL differentiation assay, Mei [4]: ●
3 | CCN(CC)CC#CCOC(=O)C(O)(c1ccccc1)C1CCCCC1 (stereo not shown) [Oxybutynin, reference compound] | ● |  |  |  | ● | 91.6 |  |  |  |  |  |  | 0.1 µM (% DMSO) [2]: 129.9 % DMSO; 1 µM (% DMSO) [2]: 169.5 % DMSO; 10 µM (% DMSO) [2]: 57.5 % DMSO; hit in OL differentiation assay, Mei [4]: ●
4 | OCCN1CCN(CCCN2c3ccccc3Sc3ccc(Cl)cc32)CC1 [Perphenazine, reference compound] | ● |  |  |  | ● |  | 7.00 |  |  |  |  |  | activation at 0.08 µM ([1]; NCC library screen): 95.7%; activation at 0.4 µM [1, 5]: 79%; 0.1 µM (% DMSO) [2]: 154.3 % DMSO; 1 µM (% DMSO) [2]: 47.1 % DMSO; 10 µM (% DMSO) [2]: 9.2 % DMSO
5 | OCc1cc(C(O)CNCCCCCCOCCCCc2ccccc2)ccc1O (stereo not shown) [Salmeterol, reference compound] | ● | 115 | 108 | 9.3 | ● | -32.4 | 6.40 |  |  |  |  |  | activation at 0.4 µM [1, 5]: 55.3%
6 | CN1CCN(CCCN2c3ccccc3Sc3ccc(C(F)(F)F)cc32)CC1 [Trifluoperazine, reference compound] | ● |  |  |  | ● |  | 6.70 | -103 | 116 | 85.8 | 11.3 |  | activation at 0.4 µM [1, 11]: 155%
7 | CC(=O)CC(c1ccccc1)c1c(O)c2ccccc2oc1=O (stereo not shown) [Warfarin] |  |  |  |  |  | -4.3 |  |  |  |  |  |  | activation at 10 µM [1, 10]: -2%; 0.1 µM (% DMSO) [2]: 92.9 % DMSO; 1 µM (% DMSO) [2]: 93.8 % DMSO; 10 µM (% DMSO) [2]: 96.2 % DMSO
8 | COc1cc(N)c(Cl)cc1C(=O)NC1CN2CCC1CC2 (stereo not shown) [Zacopride] |  |  |  |  |  |  |  | 6.8 | 87 | 88.6 | 91.9 | 13 | 
9 | COc1cc(C(=O)NS(=O)(=O)c2ccccc2C)ccc1Cc1cn(C)c2ccc(NC(=O)OC3CCCC3)cc12 [Zafirlukast] |  | 94.9 | 78.7 | 41.9 |  |  |  | -96.7 |  |  |  |  | activation at 0.4 µM [1, 11]: -24.7%
10 | Nc1ccn([C@H]2CC[C@@H](CO)O2)c(=O)n1 [Zalcitabine] |  | 95.4 | 86.4 | 79.3 |  |  |  | -5.5 |  |  |  | -96.7 | 
11 | CCN(C(C)=O)c1cccc(-c2ccnc3c(C#N)cnn23)c1 [Zaleplon] |  | 87.8 | 86.8 | 86.1 |  | 12.3 |  |  |  |  |  |  | activation at 10 µM [1, 10]: -15.8%
12 | COc1cc(-c2ccc(=O)[nH]n2)ccc1OC(F)F [Zardaverine] |  |  |  |  |  |  |  | 4.1 | 86.5 | 93.5 | 67.4 | -36.7 | 
13 | C[C@H]1CCC[C@H](O)CCCCCc2cc(O)cc(O)c2C(=O)O1 [Zeranol] |  |  |  |  |  |  |  | -37.2 | 83.6 | 85.8 | 69.3 | -51.9 | 
